What was measured:
[1] = test system: human hematopoietic stem and progenitor cells; experiment: Megakaryopoiesis and platelet production in cultured human hematopoietic stem and progenitor cells; type: cell-based; details: added day 0, 8 days culture, I-32 and I-1 30 μM, ABT-737 6 μmol
Protocol: Materials and Methods. Hematopoietic stem and progenitor cells, identified as viable CD45+ CD34+ cells, were isolated from peripheral blood of healthy donors by a method known in the art (see Ivetic N, Nazi I, Karim N et al. Producing megakaryocytes from a human peripheral blood source. Transfusion 2016; 56:1066-74). These isolated cells were then analyzed for purity before being expanded for four days using a commercial supplement to increase their cell population. After expansion, the cells were analyzed for purity, washed, and stimulated with a saturating concentration of thrombopoietin (20 ng/mL) and stem cell factor (50 ng/mL) to begin megakaryopoiesis. Compound I-32 and Compound I-1 were added at this timepoint at a concentration of 30 μM. The cells were then cultured for 8 days to develop into megakaryocytes and analyzed via flow cytometry to assess their number, maturity, and platelet count as defined by CD41a, CD42b and Calcein-AM expression. In addition, Compound I-32 and Compound I-1 were added to cells during the later stages of development (day 6) to assess their impact on maturation. ABT-737 (6 μmol) was used as a positive control and a DMSO vehicle control (<0.15% v/v) was the negative control. All counts are normalized to a media control (PBS) as a reference for basic cell growth.
Statistical analysis. Statistical analyses were carried out by comparing effects on measured parameters in comparison to vehicle control. A value of […] (One-way ANOVA multiple comparisons) was considered as significant.
Two isolations were performed from two healthy donors (2 males) and used to assess the impacts of Compound I-32 and Compound I-1. For one of the isolations, enough expanded hematopoietic stem and progenitor cells (HSPC) (Experiment 1) were obtained so that the addition of the compounds on day 6 was also performed along with the initial experiment. For the other experiment (Experiment 2) only an 8-day incubation was performed.
All results were normalized to a reference media (PBS) and Compound I-32 and Compound I-1 were compared to a vehicle control. Reference compound ABT-737 is a known BCL-2 inhibitor and was used a positive control. Results in FIGS. 25A-25J are the summary of a single experiments conducted in triplicates. No statistical inhibition was detected for Compound I-32 or Compound I-1 (p>0.05 one-way ANOVA).

[2] = test system: Mouse primary hepatocytes; experiment: 14C-acetate incorporation into total lipids in mouse primary hepatocytes; type: cell-based; details: incorporation of 14C-acetate in primary mouse hepatocyte total lipids, 4 hours; for inhibition at 100 µM: read-out: % change from control at 100 μM ± SEM(n)
Protocol: After perfusion, collagen digested liver cells were re-suspended in William's E media (11 mM glucose) (Gibco) supplemented with 10% fetal bovine serum (FBS) (Gibco), 2 mM L-glutamine (Gibco) and 1% Antibiotic-Antimycotic (Gibco) mixture and seeded in white opaque 96-well plates. On the following day, the cells were serum-starved for 2 hours, then treated with 0 μM, 0.1 μM, 0.3 μM, 0.5 μM, 1 μM, 3 μM, 10 μM, and 100 μM of Compound I-32, Compound I-1, Compound III-1 or Reference Compound (e.g., any of Compounds A-E or bempedoic acid) in the presence of ^14C-Acetate (1 μCi/ml, PerkinElmer). Each of Compound I-32, Compound I-1, Compound III-1, and Reference Compound was solubilized in 100% DMSO to a final concentration of 100 mM stock solution. In the experimental condition, the stock solution was diluted in serum free media (William's E media (11 mM glucose) (Gibco), 2 mM L-glutamine (Gibco) and 1% Antibiotic-Antimycotic) to yield the desired concentration of each compound. […] After 4 hours of treatment, the plates were washed two times with PBS (×1) and 100 μL microscint fluid (Microscint 0, part #601361) was added in each well. Plates were wrapped with aluminum foil and were shaken at 250 rpm for 2 h. After 2 h of shaking, ^14C incorporation into lipid was determined by liquid scintillation counting using a TopCount NXT Microplate Scintillation and Luminescence Counter (Perkin Elmer).
The effects of Compound I-32, Compound I-1, and Compound III-1 on mouse primary hepatocyte lipogenesis are represented in Table 13. Each Compound was assayed at a concentration of 0 μM (vehicle control), 0.1 μM, 0.3 μM, 0.5 μM, 1 μM, 3 μM, 10 μM, and 100 μM, unless otherwise noted. Statistically significant inhibition was determined by one-way ANOVA and Dennett's post hoc test where appropriate. […] IC50 values were determined by nonlinear regression. All statistical analyses were carried out using GraphPad Prism 8 software. A p-value of less than or equal 0.05 was considered significant.

[3] = biological target: human ACLY (Homo sapiens (Human), UniProt P53396); experiment: ATP-citrate lyase (ACLY) enzymatic assay (ADP-Glo); type: biochemical; details: recombinant human ACLY; 10 concentrations from 300 μM; Runs 1-3; read-out: Compound IC50 (M) ACLY
Protocol: ATP citrate lyase was obtained from Sino Biological Inc. Cat #11769-H07B, Lot #LC08DE1701. It was prepared from a DNA sequence encoding the human ACLY (P53396) (Met 1-Met 1101) expressed in Baculovirus-Insect Cells, with a polyhistidine tag at the N-terminus. The recombinant human ACLY consists of 1120 amino acids and has a calculated molecular mass of 123 kDa. It migrates as an approximately 110 kDa band in SDS-PAGE under reducing conditions. The enzyme came as a lyophilized powder in sterile 20 mM Tris, 500 mM NaCl, pH 8.0, 10% glycine. Normally 5%-8% trehalose and mannitol are added as protectants before lyophilization. The recombinant human ACLY from Sino Biological was formulated in 45 mM Tris-HCl, pH 8.0, 124 mM NaCl, 2.4 mM KCl, 18 mM glutathione, 10% glycerol, and 3 mM DTT.
To detect ADP produced from ACL assay, the ADP-Glo™ assay format from Promega, Madison, WI, was used, to detect the conversion of ATP to ADP. […] This assay is performed in two steps: i) after the ACL-mediated enzymatic reaction that utilizes ATP and produces ADP, ADP-Glo™ Reagent is added to terminate the kinase reaction and deplete the remaining ATP, and ii) the Kinase Detection Reagent is added to convert ADP to ATP and allow the newly synthesized ATP to be measured using a luciferase/luciferin reaction. The light generated, measured in a luminometer, correlates to the amount of ADP generated in the ACL assay, which is indicative of ACL activity.
Data represent nM or μM ADP produced, % Activity (relative to no inhibitor controls), and curve fits were performed by GraphPad Prism software. The IC50 concentration-response curves were generated for ADPGlo™ using recombinant human ACL from Sino Biologicals Inc.

[4] = Synthesis of CoA derivatives in rat liver microsomes (LCMS detection); type: in vitro ADME; details: 1 mM substrate, 30 min sample
Protocol: Reaction products were eluted using the gradient shown below: […]
Formation and detection of the Co-A derivatives of Compounds 1-32, 1-61, I-1 or III-1 in rat liver microsomes: 1 mM of each compound (Compounds I-32, I-61, I-1 or III-1) or palmitic acid (control) were used as substrate in the rat microsomal preparation for 0 and 30 min and extracted as described above. […] Further confirmation was obtained by exposing the compound to a collision energy causing the characteristic neutral loss of 3′-phosphonucleoside diphosphate (507 Da) producing the fragment ion 499.3 m/z. There was no evidence of the CoA derivative in the time 0 min sample.

human ACLY, sequence (P53396 whole entry): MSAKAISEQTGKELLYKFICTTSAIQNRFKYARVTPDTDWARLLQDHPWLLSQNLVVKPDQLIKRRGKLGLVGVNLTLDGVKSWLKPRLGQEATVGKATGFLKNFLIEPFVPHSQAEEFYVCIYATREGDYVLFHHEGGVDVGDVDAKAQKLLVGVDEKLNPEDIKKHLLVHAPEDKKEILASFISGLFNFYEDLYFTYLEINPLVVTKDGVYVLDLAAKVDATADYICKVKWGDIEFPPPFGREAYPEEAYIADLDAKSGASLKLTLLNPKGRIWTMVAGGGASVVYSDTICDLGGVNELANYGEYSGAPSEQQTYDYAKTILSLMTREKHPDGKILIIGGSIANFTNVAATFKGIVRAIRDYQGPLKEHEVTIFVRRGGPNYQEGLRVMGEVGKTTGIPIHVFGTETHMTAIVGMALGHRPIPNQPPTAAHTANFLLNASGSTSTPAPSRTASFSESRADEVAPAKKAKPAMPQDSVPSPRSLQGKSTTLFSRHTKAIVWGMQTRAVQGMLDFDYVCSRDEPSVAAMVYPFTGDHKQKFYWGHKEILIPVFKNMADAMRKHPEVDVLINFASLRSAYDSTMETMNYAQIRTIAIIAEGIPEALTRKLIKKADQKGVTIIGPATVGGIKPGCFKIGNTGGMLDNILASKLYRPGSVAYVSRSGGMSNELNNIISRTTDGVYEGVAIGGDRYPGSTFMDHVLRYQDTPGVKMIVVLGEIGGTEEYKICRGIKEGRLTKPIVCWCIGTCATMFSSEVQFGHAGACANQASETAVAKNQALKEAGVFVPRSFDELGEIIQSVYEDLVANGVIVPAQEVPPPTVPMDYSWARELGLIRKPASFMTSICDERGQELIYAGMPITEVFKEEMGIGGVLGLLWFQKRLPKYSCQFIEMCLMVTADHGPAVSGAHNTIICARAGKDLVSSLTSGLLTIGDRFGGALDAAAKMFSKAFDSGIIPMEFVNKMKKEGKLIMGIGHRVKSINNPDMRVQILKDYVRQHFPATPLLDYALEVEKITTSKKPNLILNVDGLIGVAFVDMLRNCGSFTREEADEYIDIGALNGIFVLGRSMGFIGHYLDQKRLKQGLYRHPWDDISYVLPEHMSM

## CN(C)CC[C@H](CSc1ccccc1)Nc1ccc(S(=O)(=O)NC(=O)c2ccc(N3CCN(Cc4ccccc4-c4ccc(Cl)cc4)CC3)cc2)cc1[N+](=O)[O-] [ABT-737, reference compound]
[1]
  CD41a+ mean fluorescence intensity (MFI), normalized: 46±34%
  Normalized cell size (CD41a+): 81±6%
[1]; average±SD
  CD41a CD42b+ counts (mature megakaryocytes), normalized to reference media control: 2±1%
  CD41a+ cells (megakaryocytes), normalized to reference media control: 9±5%
  Platelet counts, normalized to reference media control: 3±3%

## CC(C)(CO)CCCCC(=O)CCCCC(C)(C)CO [A]
[2]
  % change from control at 100 μM ± SEM(n): −41 ± 4.8 (n = 2) %

## CC(C)(CCCCCC(O)CCCCCC(C)(C)C(=O)O)C(=O)O [BA, Bempedoic acid]
[2]
  % change from control at 100 μM ± SEM(n): −79 ± 1.5 (n = 4) %

## COc1ccc(-c2ccccc2)cc1NS(=O)(=O)c1cc(Cl)cc(Cl)c1O [BMS-303141, reference compound]
[3]
  IC50: 4.45e-07 M

## CC(C)(CO)CCCCC(=O)CCCCC(C)(C)C(=O)O [B]
[2]
  IC50: 25.6 µM
  inhibition at 100 µM: 69 ± 2.3%

## CC(C)(CCCCCC(=O)CCCCCC(C)(C)C(=O)O)C(=O)O [C]
[2]
  inhibition at 100 µM: 76 ± 41%

## CC(C)(CO)CCCCCC(=O)CCCCCC(C)(C)CO [D]
[2]
  % change from control at 100 μM ± SEM(n): −90 ± 1.5 (n = 4) %

## CC(C)(CCCCCCC(=O)CCCCCCC(C)(C)C(=O)O)C(=O)O [E]
[2]
  % change from control at 100 μM ± SEM(n): −62 ± 4.5 (n = 4) %

## CC(C)(CCCCCCCCCCCC(C)(C)C(=O)O)C(=O)O [F]
[2]
  % change from control at 100 μM ± SEM(n): −91 ± 3.6 (n = 4) %

## CC(C)(CCCc1ccccc1CCCC(C)(C)C(=O)SCCNC(=O)CCNC(=O)[C@H](O)C(C)(C)COP(=O)(O)OP(=O)(O)OC[C@H]1O[C@@H](n2cnc3c(N)ncnc32)[C@H](O)[C@@H]1OP(=O)(O)O)C(=O)O [I-61—CoA]
[4]
  Formation of the CoA derivative (LCMS detection, fragmentation confirmation): could not be confirmed

## CC(C)(CCCc1ccc(CCCC(C)(C)C(=O)O)cc1)C(=O)O [III-1]
[2]
  % change from control at 100 μM ± SEM(n): −70 ± 2.2 (n = 4) %
